PMC11237694, “Novel pentafluorosulfanyl-containing triclocarban analogs selectively kill Gram-positive bacteria” (Microbiology Spectrum, 2024)
Read-outs that look alike come from different tables or passages of the source.

What was measured:
MRSA = experiment: Membrane permeability, propidium iodide staining; type: cell-based, methicillin-resistant S. aureus; conditions: Gram-positive MRSA; MIC concentration, 1 hour
Experimental: For assessing membrane permeability, PI (Invitrogen, Eugene, Oregon, USA) served as the fluorescent reporter dye. Increased PI fluorescence readings are indicative of heightened membrane disruption and permeability, as PI can penetrate cells, bind to DNA, and remain within the cells ([29], [30]). Bacteria were cultured in 3 mL of Mueller-Hinton broth (MHB) and incubated at 37°C for approximately 3 hours in a shaker incubator (150 rpm) until reaching an OD600 (optical density) of 0.08. […] All treated and control groups were incubated at 37°C for 1 hour in a shaker incubator (150 rpm). Ciprofloxacin and gentamycin were employed as internal controls, as they are known not to target the bacterial cell membrane in the initial steps. After incubation, the samples were centrifuged, washed with PBS (10,000 × g for 2 minutes), and bacteria were stained with 0.08 mM PI for 5 minutes at 21°C in the dark. Subsequently, 10 µL of samples were transferred onto slides and examined under a fluorescence microscope (Zeiss Axio Imager Z1) using the same exposure time (640 ms red and 1 s green). Densitometry analysis was conducted using Fiji software (ImageJ).

MDCK cells = experiment: Eukaryotic cell toxicity, MTS assay (CC50); type: cell-based, canine; conditions: for cytotoxicity level lower than that of EPB-34: MDCK cells; for CC50: MTS assay, 4 days, mean of 2 or 3 determinations, read-out: MDCK (CC50) in vitro cytotoxicity
Experimental: Five eukaryotic cell lines were used to determine the cytotoxicity of the compounds: human embryonic lung (HEL) fibroblast cells, human cervixcarinoma-derived HeLa cells, human T-cell leukemia-derived MT4 cells, MDCK cells, and African Green monkey kidney-derived VERO cells. Semi-confluent cell cultures in 96-well plates were exposed to serial dilutions of the compounds or to medium (= no compound control), then incubated at 37°C. Four days later, the cells were inspected by microscopy to determine the MCC, that is, compound concentration that causes a microscopically detectable alteration of normal cell morphology. Next, the MTS cell viability reagent (CellTiter 96 AQueous MTS Reagent from Promega) was added. After 4 hours of incubation at 37°C, OD at 490 nm was recorded in a microplate reader.

Structure (SMILES) | cell membrane disruption (PI staining) (MRSA) | cytotoxicity level lower than that of EPB-34 (MDCK cells) [logs] | CC50 (MDCK cells) [µM] | CC50 (MDCK cells; listed as EBP-61) [µM]
O=C(Nc1ccc(S(F)(F)(F)(F)F)cc1)Nc1ccc(Cl)c(Cl)c1 [EBP-59] | effective at cell membrane disruption | 2 | > 100 | –
O=C(Nc1ccc(Cl)cc1)Nc1ccc(S(F)(F)(F)(F)F)cc1 [EPB-61, 1-(4-Chlorophenyl)-3-(4-(pentafluoro-λ^6-sulfanyl)phenyl)urea] | effective at cell membrane disruption | 2 | – | > 100
